Assay results from PubChem BioAssay (NCI).
“And” between values parts separate entries of the source, which are not always exact repeats. Identical values can stand only once.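 Assay format: 96-well plates, 48-hour exposure. GI50 = concentration required for 50% inhibition of growth. TGI is the concentration that stops growth completely.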 Where a SMILES comes first, the peptide text is derived from it. The star is where a group is joined. Cbz = O=C(OCc1ccccc1)*; Boc = CC(C)(C)OC(=O)*; OSu = O=C1CCC(=O)N1O*; Bn = c1ccc(C*)cc1

Key:
Test in all cases: NCI-60 cell line screen, 48 h
[1] = system: UACC-62 melanoma
[2] = system: SK-MEL-2 melanoma
[3] = system: HL-60(TB) leukemia
[4] = system: A498 renal
[5] = system: SW-620 colon
[6] = system: T-47D breast
[7] = system: RXF 393 renal
[8] = system: MCF7 breast
[9] = system: OVCAR-5 ovarian
[10] = system: SK-MEL-5 melanoma

| Structure (SMILES) | TGI [1] | TGI [2] | TGI [3] | TGI [4] | TGI [5] | TGI [6] | TGI [7] | TGI [8] | TGI [9] | TGI [10] | GI50 [2] | GI50 [3] | GI50 [4] | GI50 [6] | GI50 [7] | GI50 [8] | GI50 [9] |
| --- | --- | --- | --- | --- | --- | --- | --- | --- | --- | --- | --- | --- | --- | --- | --- | --- | --- |
| CC[C@@]12CCC(=S)N(CCSc3ccccc3)[C@@H]1c1c(n(S(=O)(=O)c3ccc(OC)cc3)c3ccccc13)CC2 | > 100 µM | > 100 µM | > 100 µM | > 100 µM | > 100 µM | > 100 µM | > 100 µM | > 100 µM | > 100 µM | > 100 µM |  |  |  |  |  |  |  |
| COc1ccc2c(c1)CC[C@@H]1C2CC[C@]2(C)C(=C=CP(=O)(O)O)CCC12 (some centres undefined) | > 100 µM | > 100 µM |  | > 100 µM | > 100 µM | > 100 µM | > 100 µM | > 100 µM | > 100 µM | > 100 µM |  |  |  |  |  |  |  |
| O=S(=O)(O)c1cc(O)c(N=Nc2ccc3ccccc3c2O)c2ccccc12 | 42.3 µM | > 100 µM | > 100 µM |  | > 100 µM | 84.6 µM | > 100 µM |  | > 100 µM | 25.2 µM |  |  |  |  |  |  |  |
| c1ccc(-c2c(-c3[nH]c4ccccc4c3-c3ccccc3)[nH]c3ccccc23)cc1 | 21.6 µM | 22.1 µM | 11.1 µM |  | 13.1 µM | 8.44 µM | 3.72 µM | 11.9 µM | 23.4 µM | 14.8 µM |  |  |  |  |  |  |  |
| CSc1nc(C)c2c(n1)N(c1ccc(Cl)cc1)CC2 | > 100 µM | > 100 µM |  | > 100 µM | > 100 µM | > 100 µM | > 100 µM | > 100 µM | > 100 µM | > 100 µM |  |  |  |  |  |  |  |
| CCc1cc2c(c3c1CCCC3=O)CC1(C2)Cc2cc(CC)c3c(c2C1)C(=O)CCC3 |  | > 100 µM | > 100 µM | > 100 µM | > 100 µM | > 100 µM | > 100 µM | > 100 µM | > 100 µM | > 100 µM |  |  |  |  |  |  |  |
| CC(C)=CC(=O)c1c(C(=O)O)nc2ccccc2[n+]1[O-] | > 100 µM | > 100 µM | > 100 µM | > 100 µM | > 100 µM |  | > 100 µM |  | > 100 µM | > 100 µM |  |  |  |  |  |  |  |
| CC[C@@]1(O)C(=O)OCc2c1cc1n(c2=O)Cc2c-1nc1ccccc1c2C=Nc1ccccc1N[C@@H]1c2cc3c(cc2[C@@H](c2cc(OC)c(O)c(OC)c2)[C@H]2C(=O)OC[C@@H]21)OCO3 | 13.1 µM | 36.3 µM and 3.86 µM | > 100 µM | 1.79 µM and 0.68 µM | > 100 µM | 0.163 µM | 5.02 µM and 0.54 µM |  |  |  | 7.14 µM and 1.62 µM | 0.0325 µM and 0.192 µM | 0.325 µM and 0.142 µM | 0.00836 µM | 0.317 µM and 0.0619 µM | < 0.005 µM | 0.847 µM and 0.281 µM |
| O=c1c2cc(I)ccc2nc(-c2cccs2)n1O | > 100 µM | > 100 µM | > 100 µM |  | > 100 µM | 77.5 µM | > 100 µM | > 100 µM | > 100 µM | > 100 µM |  |  |  |  |  |  |  |
| Cc1ncc(CSC(=N)N)n1Cc1ccccc1 | > 100 µM | > 100 µM |  | > 100 µM | > 100 µM | > 100 µM | > 100 µM | > 100 µM | > 100 µM | > 100 µM |  |  |  |  |  |  |  |
| N#Cc1c(N)nc(Sc2ccccc2N)c(C#N)c1-c1ccccc1 | 26.6 µM | 32.5 µM |  |  | > 100 µM |  |  | 49.8 µM | > 100 µM | > 100 µM |  |  |  |  |  |  |  |
| CN(C)C(=O)Oc1ccc(C(=S)Nc2ccccc2)cc1 | > 100 µM | > 100 µM | 84.9 µM | > 100 µM | > 100 µM | > 100 µM |  | > 100 µM | > 100 µM | 55.6 µM |  |  |  |  |  |  |  |
| CC(C)(C)OC(=O)NC(Cc1ccc(OCc2ccccc2)cc1)C(=O)NC(CCCCNC(=O)OCc1ccccc1)C(=O)NC(CCCCNC(=O)OCc1ccccc1)C(=O)ON1C(=O)CCC1=O (centres undefined) (Boc-Tyr(Bn)-Lys(Cbz)-Lys(Cbz)-OSu; configuration not given here) | 34.6 µM | 99.4 µM |  |  |  | > 100 µM | > 100 µM | 39.3 µM | > 100 µM | > 100 µM |  |  |  |  |  |  |  |
| Cc1nc(Cc2n[nH]c(C)n2)n[nH]1 | > 100 µM | > 100 µM |  |  | > 100 µM |  | > 100 µM | > 100 µM | > 100 µM | > 100 µM |  |  |  |  |  |  |  |
| Cc1cc2c(cc1Cl)Sc1n[nH]c(=O)n1S2(=O)=O | > 100 µM |  | > 100 µM | 90.8 µM | > 100 µM |  |  | > 100 µM | > 100 µM | > 100 µM |  |  |  |  |  |  |  |
| CC(=O)N1c2cc(N=NN(C)C)ccc2NC(=O)CC1C (centres undefined) | > 100 µM | > 100 µM | > 100 µM |  | > 100 µM | > 100 µM | > 100 µM | > 100 µM | > 100 µM | > 100 µM |  |  |  |  |  |  |  |
| O=C1/C(=C/c2ccc(Cl)cc2)Oc2ccccc21 | > 100 µM |  | > 100 µM |  | > 100 µM | 90.3 µM | 54.8 µM | > 100 µM |  | 42.1 µM |  |  |  |  |  |  |  |
| Cc1ccccc1Nc1nc2ccccc2nc1NS(=O)(=O)c1ccccc1 | > 100 µM | > 100 µM | > 100 µM |  | > 100 µM | > 100 µM | > 100 µM | > 100 µM | > 100 µM | > 100 µM |  |  |  |  |  |  |  |
| Cc1ccc(NC(=O)C(=O)Cc2cccc[n+]2[O-])cc1C | > 100 µM | > 100 µM | > 100 µM | > 100 µM | > 100 µM |  | > 100 µM |  | > 100 µM | > 100 µM |  |  |  |  |  |  |  |
| O=C(NCc1ccccc1Cl)c1c(O)c2ccccc2[nH]c1=O |  |  | > 100 µM | 30.4 µM | 64.3 µM |  | 63.1 µM | > 100 µM | > 100 µM | > 100 µM |  |  |  |  |  |  |  |
| S=c1[nH]nc(CCCCCCCCc2n[nH]c(=S)o2)o1 |  | > 100 µM | > 100 µM | > 100 µM | > 100 µM |  | > 100 µM | > 100 µM | > 100 µM | > 100 µM |  |  |  |  |  |  |  |
| O=CC1=CCC2c3[nH]c4ccccc4c3CCN2C1 (centres undefined) | > 396 µM | 267 µM | > 396 µM |  | > 396 µM |  | > 396 µM |  | > 396 µM | > 396 µM |  |  |  |  |  |  |  |
| COc1cc2c(cc1OC)C(=O)/C(=C/c1ccc(N(C)C)cc1)CC2 | > 10 µM | > 10 µM | > 10 µM |  | > 10 µM | > 10 µM | > 10 µM | > 10 µM | > 10 µM | > 10 µM |  |  |  |  |  |  |  |
